“Also recorded” adds a separate entry of the source. Where two headings read alike, the source gives them in different places.
Tests used:
[1] = target: ScinGOBP2 (Semiothisa cinerearia, UniProt A0A889XLB8); experiment: Fluorescence-based competitive binding assay with 1-NPN probe
Description: A total of 27 volatile compounds were selected for a fluorescence-based competitive binding assay based on previously reported information for S. cinerearia host plants. This experiment was performed on a spectrofluorometer F-380 (Tianjin, China) using slits of 10 nm and a light path of 1 cm. The fluorescent probe N-phenyl-1-naphthylamine (1-NPN) was excited at 337 nm, and emissions were recorded between 390 and 530 nm. The affinity of 1-NPN for ScinGOBP2 was measured by titrating a 2 μM solution of the protein with aliquots of 1 mM 1-NPN in methanol to final concentrations of 1–16 μM. The dissociation constants of 1-NPN and the proteins were calculated using the software GraphPad Prism 8.0. Competitive binding was measured via the titration of the protein/1-NPN (both at 2 μM) mixture by adding aliquots of 1 mM of methanol solution of ligand to final concentrations of 2–30 μM. Dissociation constants of the competitors were calculated using the equation KD = IC50/(1 + [1-NPN]/K1-NPN), where IC50 represents the ligand concentration achieving a 50% decrease in 1-NPN’s initial fluorescence intensity, [1-NPN] represents the free concentration of 1-NPN, and K1-NPN represents the dissociation constant of the complex ScinGOBP2/1-NPN.

[2] = tested on: female S. cinerearia; experiment: Two-choice oviposition preference assay; format: in vivo, Semiothisa cinerearia; conditions: 100 μg in paraffin oil vs solvent control; eggs counted after 48 h
Description: The oviposition preference of female S. cinerearia for the ScinGOBP2 ligands was assessed in a screened enclosure (length/width/height = 86 cm:46 cm:48 cm). To ensure mating of all the female moths, newly emerged males and females were cohabitated in a rearing enclosure (30 cm × 30 cm × 30 cm) at a sex ratio of 1:2 for a period of 2 days. Mated females for subsequent experiments were randomly selected from this enclosure. Each screened cage housed five gravid females. For adult nourishment, a small Petri dish containing 10% honey solution was positioned at the cage’s base center. Test compounds (100 μg, diluted in paraffin oil) or the solvent control (paraffin oil) were applied to a cotton ball, which was then affixed to the opposite inner sides of the cage. After 48 h, the number of eggs deposited on the gauze on both the treatment and control sides was counted. The oviposition preference index was determined using the formula (T − C)/(T + C), where T represents the egg count on the treatment side and C represents the count on the control side. Each experiment was replicated eight times.

[3] = tested on: S. cinerearia antennae; experiment: Electroantennogram (EAG) recordings; parameters: species or system Semiothisa cinerearia; conditions: 10 μL of 10 μg/μL in paraffin oil, control subtracted, n = 12
Description: Electroantennogram recordings were carried out to measure the antennal responses of S. cinerearia to ScinGOBP2 ligands. The antennae of S. cinerearia adults were carefully removed from the base, and the tips were carefully cut off. The prepared antennae were affixed to electrode holders using conductive electrode gel. Subsequently, a 10 μL aliquot of the test compound (10 μg/μL, diluted in paraffin oil) was applied to a strip of filter paper. This strip was then placed into a 1000 µL pipette tip, serving as a cartridge. The test cartridge was connected to a stimulus controller (CS-55; Syntech, Kirchzarten, Germany) that delivered a 0.5 s stimulus every 30 s at a constant flow rate of 10 mL/s. Antennal signals were recorded using an EAG Pro system (Syntech). In all the experiments, antennae were exposed to a solvent control (paraffin oil) at the beginning and end of a series of sample measurements. Test stimuli were presented in a randomized sequence, interspersed between two control puffs. The EAG responses to the test odors were adjusted by subtracting the mean amplitude of the two control signals. EAG responses were measured from a cohort of twelve insects, each with different antennae (n = 12).

[4] = tested on: AipsGOBP2; parameters: method as in PMID 29778539; conditions: cited from earlier work
[5] = tested on: OachGOBP2; parameters: method as in PMID 36975901; conditions: cited from earlier work
[6] = KD, competitive displacement of 1-NPN, protein/1-NPN both at 2 μM, ligand 2–30 μM, KD = IC50/(1 + [1-NPN]/K1-NPN), mean ± SE
[7] = competitive displacement of 1-NPN, protein/1-NPN both at 2 μM, ligand 2–30 μM, KD = IC50/(1 + [1-NPN]/K1-NPN), mean ± SE, read-out: KD

Sequence of ScinGOBP2 (A0A889XLB8 entry or part of it): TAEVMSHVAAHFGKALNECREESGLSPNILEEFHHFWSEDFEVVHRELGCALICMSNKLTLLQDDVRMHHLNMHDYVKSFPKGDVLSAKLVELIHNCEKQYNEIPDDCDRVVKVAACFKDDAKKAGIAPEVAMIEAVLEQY

SMILES: c1ccc(Nc2cccc3ccccc23)cc1 [1-NPN, N-phenyl-1-naphthylamine, reference compound]
- Kd ([1]; dissociation constant (KD) for the ScinGOBP2/1-NPN complexes, direct titration of 2 μM protein with 1-NPN 1–16 μM): 2.27 µM

SMILES: C=CCCCCCCC [1-Nonene]
- Kd [1, 6]: 12.2 ± 0.44 µM
- Kd ([1]; competitive displacement of 1-NPN, protein/1-NPN both at 2 μM, ligand 2–30 μM, KD = IC50/(1 + [1-NPN]/K1-NPN), mean ± SE): < 15 µM
- Oviposition preference of mated females [2]: deter S. cinerearia from ovipositing; also recorded: marked repellent behavioral responses

SMILES: CCCCCCCCCC=O [Decanal]
- Kd [1, 7]: 5.07 ± 0.27 µM
- EAG mean response value, males ([3]; male antennae): 0.063 mV
- Oviposition preference of mated females [2]: significant preference for laying eggs; also recorded: significant attractant behavioral responses

SMILES: C=C(C)[C@H]1CC=C(C)CC1 [Dipentene]
- Kd [1, 6]: 14.9 ± 0.77 µM
- EAG mean response value, females ([3]; female antennae): 0.086 mV
- Oviposition preference of mated females [2]: deter S. cinerearia from ovipositing; also recorded: marked repellent behavioral responses

SMILES: CC(=O)CC/C=C(\C)CCC=C(C)C [Geranyl acetone]
- Kd [1, 7]: 2.21 ± 0.17 µM
- Oviposition preference of mated females [2]: deter S. cinerearia from ovipositing; also recorded: marked repellent behavioral responses

SMILES: CC/C=C\CCOC(=O)CCC [cis-3-Hexenyl butyrate]
- Kd [1, 7]: 14.17 ± 0.04 µM
- Oviposition preference of mated females [2]: significant preference for laying eggs; also recorded: significant attractant behavioral responses

SMILES: CC/C=C\CCOC(=O)CCCC [cis-3-Hexenyl n-valerate]
- Kd [1, 7]: 6.55 ± 0.18 µM
- Oviposition preference of mated females [2]: significant preference for laying eggs; also recorded: significant attractant behavioral responses

SMILES: CC/C=C\CCO [cis-3-hexen-1-ol]
- binding affinity for AipsGOBP2 [4]: high binding affinity

SMILES: CCCCOC(=O)c1ccccc1C(=O)OCCCC [dibutyl phthalate]
- binding affinity for AipsGOBP2 [4]: high binding affinity

SMILES: CC(C)=CCC/C(C)=C/CC/C(C)=C/CO [farnesol]
- binding affinity for OachGOBP2 [5]: high binding affinity

SMILES: CCCCCCCC/C=C\CCCCCCCC(=O)O [oleic acid]
- binding affinity for AipsGOBP2 [4]: high binding affinity

SMILES: CC1=CCC2CC1C2(C)C (stereo not drawn) [α-Pinene]
- Kd [1, 6]: 9.41 ± 0.28 µM
- Oviposition preference of mated females [2]: significant preference for laying eggs; also recorded: significant attractant behavioral responses

SMILES: CC1=CC[C@H](C(C)C)C=C1 [α-phellandrene]
- binding affinity for OachGOBP2 [5]: high binding affinity

SMILES: C=C1CCC2CC1C2(C)C (stereo not drawn) [β-Pinene]
- Kd [1, 6]: 13.2 ± 0.19 µM
- Oviposition preference of mated females [2]: deter S. cinerearia from ovipositing; also recorded: marked repellent behavioral responses

SMILES: C=C1CC/C=C(\C)CC[C@@H]2[C@@H]1CC2(C)C [β-caryophyllene]
- binding affinity for AipsGOBP2 [4]: high binding affinity

— publication PMC11048283 (Biology, 2024)
